Test results as given in patent publication US20220314021A1, “METHOD FOR D[…] […] PHOTODYNAMIC THERAPY AND PHOTODYNAMIC THERAPY APPARATUS” (OTSUKA ELECTRONICS CO., LTD., priority 2019, published 2022).

Test system: Jurkat cells derived from human T-cell leukemia
Test: cell killing assay by PDT in Jurkat cells (630 nm, Cell Counting Kit-8)
Type: cell-based
Conditions: 5-ALA loading 0-1 mmol/L, light irradiation 30 J/cm^2, 630 nm
Method: For Jurkat cells derived from human T-cell leukemia which is a disease classification different from that of the human adult T-cell leukemia/lymphoma clinically, amounts of protoporphyrin IX accumulated in the cells by 5-ALA loading (0, 0.0625, 0.125, 0.25, 0.5 and 1 mmol/L) were measured using the fluorescence detection high-performance liquid chromatography method, and then light irradiation (30 J/cm^2) with a central wavelength of 630 nm was further performed as the cell killing assay by PDT, and then cell viabilities (%) using the cell counting kit (Cell Counting Kit-8) were calculated.

Structure (SMILES): NCC(=O)CCC(=O)O [5-ALA, 5-aminolevulinic acid]
- cell viabilities versus the regression curve of FIG. 3: located on the regression curve described in FIG. 3
